In patent US4496521A, “Insulin-potentiating peptides” (The Whittier Institute for Diabetes and Endocrinology, priority 1983, dated 1985):

How the values were obtained:
[1] = test system: VY-F-1 hybrid yellow mice; test: (U-14C)-D-glucose incorporation in tissues of mice after a glucose load; type: in vivo
Protocol: containing an appropriate amount of (U-^14 C)-D-glucose (Amersham Radiochemicals, Arlington Heights, IN) so that about 8×10^5 dpm of radiolabeled glucose was given per mouse. Sixty minutes after administration of the mixture, the mice were sacrificed and fragments of liver, diaphragm, and adipose tissue were quickly excised and weighed in a torsion balance. The pieces were placed in vials and digested for 2 hr at 55° C. in 1 molar KOH. After cooling to room temperature, the scintillation liquid was added to the vials. Radioactivity was measured the next day, and an average efficiency of 60% was measured using the internal standard method. Samples of blood were collected at the desired time by intraorbital puncture. Glucose content in the chilled plasma was determined in triplicates by the glucose oxidase method. Blood concentration of radioactive glucose was determined using 20 μl of plasma. Glucose incorporation (GI), expressed in arbitrary units, was calculated by the following equation for the various tissues: [formula] The specific activity of plasma glucose is defined as disintegrations per minute of radioactivity×1000 per 100 μl plasma, divided by milligrams of glucose per 100 ml. of plasma. Statistical significance was determined by 1-way analysis of variance and Duncan's multiple range t-test. Yellow (A^vy /A) and agouti (A/a) virgin (BALB/c×VY)F-1 hybrid female mice were produced by mating BALB/[…] females by […] males. The mice were housed 3 per 7"×5"×11" polypropylene cage with pine shavings as bedding and fed Wayne Lab Blox (Allied Mills, Inc.) 10% fat diet and tap water ad libitum. Ambient temperature was about 22±1° C., and a 12 hr light cycle was maintained. […] Whereas the effect upon the incorporation of glucose in the diaphragm was of lesser magnitude, it is possible that the values represent the maximal rate of glucose utilization by this muscle. […] Further testing was carried out on other mice to show the effect of insulin on the utilization of glucose in similar mice. Because the animals were obese and a maximal effect was desired, a large amount of hormone (50 milliunits per mouse) were used.

[2] = Plasma glucose in mice given a glucose load (glucose oxidase method); type: in vivo; settings: for Plasma Glucose 0 min: sample at 0 min; for Plasma Glucose 60 min: sample at 60 min
Protocol: Injections were made intraperitoneally 30 min before administration of a glucose load of 2 mg/g of body weight containing an appropriate amount of (U-^14 C)-D-glucose (Amersham Radiochemicals, Arlington Heights, IN) so that about 8×10^5 dpm of radiolabeled glucose was given per mouse. Sixty minutes after administration of the mixture, the mice were sacrificed and fragments of liver, diaphragm, and adipose tissue were quickly excised and weighed in a torsion balance. The pieces were placed in vials and digested for 2 hr at 55° C. in 1 molar KOH. After cooling to room temperature, the scintillation liquid was added to the vials. Radioactivity was measured the next day, and an average efficiency of 60% was measured using the internal standard method. Samples of blood were collected at the desired time by intraorbital puncture. Glucose content in the chilled plasma was determined in triplicates by the glucose oxidase method. Blood concentration of radioactive glucose was determined using 20 μl of plasma. Glucose incorporation (GI), expressed in arbitrary units, was calculated by the following equation for the various tissues: [formula]
Further testing was carried out on other mice to show the effect of insulin on the utilization of glucose in similar mice. Because the animals were obese and a maximal effect was desired, a large amount of hormone (50 milliunits per mouse) were used.

[3] = test system: adipose tissue from hypophysectomized rats; test: Stimulation of glucose oxidation in adipose tissue from hypophysectomized rats; type: cell-based; settings: for ability to stimulate glucose oxidation in adipose tissue: native peptides at concentrations up to 50 μg per ml
Excerpt: Biochem., 11, 559-570. The detailed extraction procedure actually employed is set forth in "Human Growth Hormone Peptide 1-43: Isolation from Pituitary Glands", Singh et al., J. Protein Chem., (in press) (1983).

[4] = Hypoglycemic activity of insulin when the peptide is given together with insulin; type: in vivo
[5] = mice; Frigeri et al., Endocrine Society Abstract #88; cited from earlier work
[6] = Table I, increase versus saline, 50 μg, 30 min before glucose
[7] = Table IA, increase versus saline, 50 μg, 30 min before glucose
[8] = Group B: insulin 50 mU per mouse 30 min before glucose
[9] = Group B: insulin 50 mU per mouse 30 min before glucose, listed as insulin
[10] = Group C: insulin 50 mU per mouse 5 min before glucose load
[11] = Group C: insulin 50 mU per mouse 5 min before glucose load, listed as insulin

CC[C@H](C)[C@H](NC(=O)[C@H](Cc1ccc(O)cc1)NC(=O)[C@H](C)NC(=O)[C@H](CCC(=O)O)NC(=O)[C@H](CCC(=O)O)NC(=O)[C@H](Cc1ccccc1)NC(=O)[C@H](CCC(=O)O)NC(=O)[C@H](CCC(N)=O)NC(=O)[C@H](Cc1ccc(O)cc1)NC(=O)[C@@H](NC(=O)[C@H](CC(=O)O)NC(=O)[C@H](Cc1ccccc1)NC(=O)[C@H](C)NC(=O)[C@H](CC(C)C)NC(=O)[C@H](CCC(N)=O)NC(=O)[C@H](Cc1c[nH]cn1)NC(=O)[C@H](CC(C)C)NC(=O)[C@H](CCCNC(=N)N)NC(=O)[C@H](Cc1c[nH]cn1)NC(=O)[C@H](C)NC(=O)[C@H](CCCNC(=N)N)NC(=O)[C@H](CC(C)C)NC(=O)[C@H](CCSC)NC(=O)[C@H](C)NC(=O)[C@H](CC(N)=O)NC(=O)[C@H](CC(=O)O)NC(=O)[C@H](Cc1ccccc1)NC(=O)[C@H](CC(C)C)NC(=O)[C@H](CCCNC(=N)N)NC(=O)[C@H](CO)NC(=O)[C@H](CC(C)C)NC(=O)[C@@H]1CCCN1C(=O)[C@@H](NC(=O)[C@@H](NC(=O)[C@@H]1CCCN1C(=O)[C@@H](N)Cc1ccccc1)[C@@H](C)O)[C@@H](C)CC)[C@@H](C)O)C(=O)N1CCC[C@H]1C(=O)N[C@@H](CCCCN)C(=O)N[C@@H](CCC(=O)O)C(=O)N[C@@H](CCC(N)=O)C(=O)N[C@@H](CCCCN)C(=O)N[C@@H](Cc1ccc(O)cc1)C(=O)N[C@@H](CO)C(=O)O [hGH(1-43), H--Phe--Pro--Thr--Ile--Pro--Leu--Ser--Arg--Leu--Phe--Asp--Asn--Ala--Met--Leu--Arg--Ala--His--Arg--Leu--His--Gln--Leu--Ala--Phe--Asp--Thr--Tyr--Gln--Glu--Phe--Glu--Glu--Ala--Tyr--Ile--Pro--Lys--Glu--Gln--Lys--Tyr--Ser--OH]
Glucose Incorporation Diaphragm ([1]; Table I, 50 μg intraperitoneally 30 min before glucose load, Mean ± SEM): 52.0 arbitrary units/g of tissue
Glucose Incorporation Liver ([1]; Table I, 50 μg intraperitoneally 30 min before glucose load, tissue 60 min after glucose, Mean ± SEM): 135.9 arbitrary units/g of tissue
Glucose Incorporation Adipose Tissue (%) [1, 6]: 63%
Glucose Incorporation Diaphragm (%) [1, 6]: 17%
Glucose Incorporation Liver ([1]; Table IA, 50 μg 30 min before glucose load, Mean ± SEM): 115.2 ± 16 arbitrary units/g of tissue
Glucose Incorporation Liver (%) [1, 7]: 35%
change of plasma glucose after administration of the peptide ([2]; after administration of hGH(1-43)): no significant decrease
stimulation of in vitro glucose oxidation in adipose tissue ([3]; in vitro): does not stimulate
ability to stimulate glucose oxidation in adipose tissue [3]: inactive
hypoglycemic activity of insulin [4]: an increase of its hypoglycemic activity is observed

GH: purified growth hormone, used as active comparator in the glucose oxidation assay
level at which glucose oxidation stimulating activity is shown ([3]; purified GH): 0.2 ng per ml

H-AHRLHQLAFDTYQEFEEAYIPKEQKYS-OH [hGH(17-43), H--Ala--His--Arg--Leu--His--Gln--Leu--Ala--Phe--Asp--Thr--Tyr--Gln--Glu--Phe--Glu--Glu--Ala--Tyr--Ile--Pro--Lys--Glu--Gln--Lys--Tyr--Ser--OH]
Glucose Incorporation Liver (%) [1, 7]: ~35%
ability to stimulate glucose oxidation in adipose tissue [3]: inactive

Insulin: hormone which controls storage and oxidation of sugar; given at 50 mU per mouse
Glucose Incorporation Adipose Tissue [1, 8]: 9.1 ± 0.82 arbitrary units/g of tissue
Glucose Incorporation Diaphragm [1, 8]: 54.4 ± 2.8 arbitrary units/g of tissue
Glucose Incorporation Liver [1, 8]: 36.6 ± 2.6 arbitrary units/g of tissue
Glucose Incorporation Adipose Tissue [1, 9]: rose
Glucose Incorporation Diaphragm [1, 9]: rose
Glucose Incorporation Liver [1, 9]: fell sharply below control levels
Glucose Incorporation Adipose Tissue [1, 10]: 9.0 ± 1.05 arbitrary units/g of tissue
Glucose Incorporation Diaphragm [1, 10]: 52.2 ± 2.4 arbitrary units/g of tissue
Glucose Incorporation Liver [1, 10]: 64.4 ± 9.5 arbitrary units/g of tissue
Glucose Incorporation Adipose Tissue [1, 11]: rose to values similar to those observed in the -30 minute treated group
Glucose Incorporation Diaphragm [1, 11]: rose to values similar to those observed in the -30 minute treated group
Glucose Incorporation Liver [1, 11]: remained unchanged
Plasma Glucose 0 min [2, 8]: 70 ± 8.3 mg/dL
Plasma Glucose 0 min [2, 9]: dropped sharply
Plasma Glucose 60 min [2, 8]: 182 ± 11.8 mg/dL
Plasma Glucose -30 min ([2]; Group B: insulin 50 mU per mouse 30 min before glucose, sample at -30 min): 122 ± 2.8 mg/dL
Plasma Glucose 0 min [2, 10]: 151. ± 9.5 mg/dl
Plasma Glucose 60 min [2, 10]: 270 ± 31 mg/dL
Plasma Glucose -5 min ([2]; Group C: insulin 50 mU per mouse 5 min before glucose load, sample at -5 min): 129 ± 6.5 mg/dL

fragment corresponding to amino acid residues 32-46: fragment corresponding to amino acid residues 32-46 of human GH (literature) (EEAYIPKEQKYSFLQ; UniProt P01241 58-72, looked up, fragment)
glucose tolerance [5]: could improve the glucose tolerance
